Laboratory results published in US7232845B2, “Active substance combinations comprising insecticidal and acaricidal properties” (Bayer CropScience AG, priority 2000, dated 2007).

What follows are compounds tested on whitefly Bemisia tabaci (assay: Bemisia test (cotton plants infested with whitefly, immersed in active compound preparation)). Details: single active compound, 4 ppm; eggs, larvae and pupae on cotton plants (Gossypium hirsutum), immersion.
Format: in vivo
Text: The expected action for a given combination of two active compounds can be calculated as follows, using the formula of S. R. Colby, Weeds 15 (1967), 20–22:
• X is the efficacy, expressed as % of the untreated control, when employing active compound A at an application rate of m g/ha or in a concentration of m ppm, • Y is the efficacy, expressed as % of the untreated control, when employing active compound B at an application rate of n g/ha or in a concentration of n ppm and • E is the efficacy, expressed as % of the untreated control, when employing active compounds A and B at application rates of m and n g/ha or in a concentration of m and n ppm, then
[formula] If the actual insecticidal kill rate exceeds the calculated value, the action of the combination is superadditive, i.e. a synergistic effect is present. In this case, the actually observed insecticidal kill rate must exceed the value calculated using the above formula for the expected insecticidal kill rate (E).
• Solvent: 7.5 parts by weight of dimethylformamide • Emulsifier: 2.5 parts by weight of alkylaryl polyglycol ether
To produce a suitable preparation of active compound, 1 part by weight of active compound is mixed with the stated amounts of solvent and emulsifier, and the concentrate is diluted with water to the desired concentration.
Cotton plants (Gossypium hirsutum) which are infested with eggs, larvae and pupae of the whitefly Bemisia tabaci are immersed in a preparation of active compound of the desired concentration.
After the desired period of time, the kill in % is determined. 100% means that all animals have been killed; 0% means that none of the animals have been killed.

Row | SMILES | Kill rate in % after 10^d
1 | Cc1c(COC(=O)C2C(/C=C(\Cl)C(F)(F)F)C2(C)C)cccc1-c1ccccc1 (stereo not drawn) [Bifenthrin, bifenthrin] | 0%
2 | CC1(C)C(C=C(Cl)Cl)C1C(=O)OC(C#N)c1ccc(F)c(Oc2ccccc2)c1 (stereo not drawn) [Cyfluthrin, cyfluthrin] | 0%
3 | Cc1cc(C)c(C2=C(OC(=O)CC(C)(C)C)C3(CCCC3)OC2=O)c(C)c1 [Ex. (I-b-1)] | 0%
